# Measurements as given in patent publication US20240122212A1 (SUNTORY HOLDINGS LIMITED, priority 2020, published 2024).
# Test: Degree of sweetness relative to sucrose
# Excerpt: The “sweetness intensity” means an intensity of sweetness of a substance. […] A numerical value obtained by multiplying the degree of sweetness by a concentration Brix value of glucose is the sweetness intensity of glucose in terms of sucrose. Thus, when a concentration of glucose in terms of sucrose is Brix 1.5, the sweetness intensity of glucose is 0.65×1.5=0.975. The sweetness intensity of a sweetener in terms of sucrose can be calculated from a degree of sweetness shown in the following table or a value of a known degree of sweetness.
# For example, when the sweetness intensity of sucrose per unit concentration Brix 1 is defined as a degree of sweetness of 1, a degree of sweetness of rebaudioside D is about 200 to 250 (median value 225), a degree of sweetness of rebaudioside M is about 200 to 260 (median value 230), a degree of sweetness of rebaudioside B is about 325, a degree of sweetness of rebaudioside A is about 200 to 300 (median value 250), a degree of sweetness of rebaudioside N is about 200 to 250 (median value 225), a degree of sweetness of rebaudioside O is about 200 to 250 (median value 225), a degree of sweetness of rebaudioside E is about 70 to 80 (median value 75), a degree of sweetness of a Luo han guo extract (containing 40% of Mog V) is about 110 to 150 (median value 130), a degree of sweetness of mogroside V is about 240 to 300 (median value 270), and a degree of sweetness of thaumatin is about 2,000, and a degree of sweetness of brazzein is about 500 to 2,000 (median value 1,250). The numerical value obtained by multiplying these degrees of sweetness by a concentration (w/v % (considered to be the same as w/w % in the case of a beverage)) of the high-intensity sweetener in a fruit juice beverage is a sweetness intensity of the high-intensity sweetener. The relative ratio in degrees of sweetness of various sweeteners to the degree of sweetness of 1 of sucrose can be determined from a known sugar sweetness conversion table, and the like. In the present description, when a degree of sweetness is shown in a numerical value range, the median value may be used. However, a sweetener having different values in a degree of sweetness by literatures, a relative ratio in a degree of sweetness to the degree of sweetness of 1 of sucrose can be defined by a sensory test. Examples of such a sensory test include a method in which samples were prepared by adding sucrose having a sweetness intensity of Brix 3.0 to 5.0 in 0.5 increments to pure water, and of which a sucrose-added sample having a sweetness intensity equal to an aqueous solution of a sweetener in a predetermined concentration is selected.
# Additionally, for a sweetener with a variable degree of sweetness as a sweetness intensity increases, degrees of sweetness in different concentrations are actually measured and plotted whereby a degree of sweetness in a predetermined concentration may be calculated from the obtained approximate curve.
smiles,measurement,setting,value
O=C[C@@H](O)[C@H](O)[C@H](O)CO [D-Arabinose],"degree of sweetness, times as much as that of sucrose",according to the confirmation by the present inventors,about 0.6 times
same,"degree of sweetness, times as much as that of sucrose",value used to design the sample solutions,0.6 times
same,"sweetness intensity, times as much as that of sucrose",value used to design the sample solutions of Example 5,0.6 times
